Test results: US10294218B2 (VIROSTATICS SRL, priority 2012, dated 2019)
Where two headings read alike, the source gives them in different places.

Experiments:
Assay type in all cases: cell-based
Primary T cells [1] = test: Antiproliferative activity (AP), mitotic index by flow cytometry; conditions: T-cell, read-out: AP50 (Inhibitory concentration 50% for antiproliferative capacity)
Procedure: Primary T cells are cultured and exposed to different concentrations of the test compounds. Cell proliferation is analysed by measuring mitotic index (ie the number of cell divisions a population of cells undergoes) through flow cytometry based techniques. Mitotic index is expressed as percentage of untreated control. Inhibition of cell proliferation (AP) is then calculated (AP=100 minus % mitotic index compared to control, AP of control=0%). Inhibitory concentration 50% for antiproliferative capacity (AP50) is calculated.
(§1) In Tables 2, 3 and 4, ND means Not Determined.

Primary T cells [2] = test: Cytotoxicity, percentage of viable cells by flow cytometry; conditions: viability
Procedure: Primary T cells are cultured and treated with different concentrations of the test compound. Viability is analysed by measuring through flow cytometry based techniques the percentage of viable cells, compared to untreated control=100%).
as §1

[3] = system: laboratory strain of HIV-1; test: Antiviral activity against HIV (AV), p24 in infected activated primary T cells; conditions: for IC50: Human immunodeficiency virus 1, T-cell, read-out: AV50 (Inhibitory concentration 50% for antiviral activity); for antiviral and antiproliferative activity and cytotoxicity profile (in words): summary of AV, AP and cytotoxicity assays; for anti-HIV and cytotoxicity profile (in words): summary of AV and cytotoxicity assays
Procedure: Activated primary T cells are infected with a laboratory strain of HIV-1, then cultured and exposed to different concentrations of the test compounds. HIV replication is analysed by measuring the viral protein p24 and expressed as percentage of untreated control. Inhibition of viral replication (AV) is then calculated (AV=100 minus the % p24 compared to control, AV of control=0%). Inhibitory concentration 50% for antiviral activity (AV50) is calculated.
as §1

Row | Compound | IC50 (Primary T cells [1]) [nM] | TD50 (Toxic dose 50%) (Primary T cells [2]) [µM] | IC50 [3] [nM] | antiviral and antiproliferative activity and cytotoxicity profile (in words) [3] | IC50 (Primary T cells [1]; primary T cells, mitotic index) [nM] | IC50 ([3]; HIV-1 infected activated primary T cells, p24) [nM] | anti-HIV and cytotoxicity profile (in words) [3]
1 | COc1ccc(Nc2cc(-c3ccccc3OC)ncn2)cc1CN1C(=O)c2ccccc2C1=O [Example 3, 2-(2-Methoxy-5-(6-(2-methoxyphenyl)pyrimidin-4-ylamino)benzyl)isoindoline-1,3-dione] | > 1000 | >5 | – | – | – | – | –
2 | COc1ccccc1-c1cc(Nc2ccc(N(C)C)cc2)ncn1 [Example 5, N^1-(6-(2-methoxyphenyl)pyrimidin-4-yl)-N^4,N^4-dimethylbenzene-1,4-diamine] | 150 | >10 | 300 | good antiviral and antiproliferative activity and a good cytotoxicity profile | – | – | –
3 | COc1ccc(Nc2cc(-c3ccccc3OC)ncn2)cc1OCCN1CCOCC1 [Example 8, N-(4-Methoxy-3-(2-morpholinoethoxy)phenyl)-6-(2-methoxyphenyl)pyrimidin-4-amine] | > 1500 | >1.5 | 400 | – | – | – | –
4 | COc1ccccc1-c1cc(Nc2ccc(Cl)c(CN3C(=O)c4ccccc4C3=O)c2)ncn1 [Example 20, 2-(2-Chloro-5-(6-(2-methoxyphenyl)pyrimidin-4-ylamino)benzyl)isoindoline-1,3-dione] | > 500 | >0.5 | > 1500 | – | – | – | –
5 | COc1ccc(Nc2cc(-c3ccccc3OC)ncn2)cc1OCc1ccccc1 [Example 36, N-(3-(Benzyloxy)-4-methoxyphenyl)-6-(2-methoxyphenyl)pyrimidin-4-amine] | > 5000 | >5 | – | – | – | – | –
6 | COc1ccc(Nc2cc(-c3ccccc3OC)ncn2)cc1CN [Example 43, N-(3-(Aminomethyl)-4-methoxyphenyl)-6-(2-methoxyphenyl)pyrimidin-4-amine] | – | – | – | good antiviral and antiproliferative activity and a good cytotoxicity profile | 500 | – | –
7 | COc1ccc(Nc2cc(-c3ccccc3OC)ncn2)cc1C(N)=O [Example 45, 2-methoxy-5-(6-(2-methoxyphenyl)pyrimidin-4-ylamino)benzamide] | 80 | – | 50 | good antiviral and antiproliferative activity and a good cytotoxicity profile | – | – | –
8 | COc1ccc(Nc2cc(-c3ccccc3OC)ncn2)cc1C(=O)N(C)N [Example 46, 2-Methoxy-5-[6-(2-methoxy-phenyl)-pyrimidin-4-ylamino]-benzoic acid N-methyl-hydrazide] | – | >10 | 5000 | – | – | – | –
9 | COc1ccc(Nc2cc(-c3ccc(F)cc3OC)ncn2)cc1N [Example 64] | – | – | 5000 | good antiviral and antiproliferative activity and a good cytotoxicity profile | < 80 | – | –
10 | COc1ccc(Nc2cc(-c3cc(F)ccc3OC)ncn2)cc1N [Example 75, N^1-[6-(5-Fluoro-2-methoxy-phenyl)-pyrimidin-4-yl]-4-methoxy-benzene-1,3-diamine] | – | – | 10 | good antiviral and antiproliferative activity and a good cytotoxicity profile | < 80 | – | –
11 | COc1ccc(Nc2cc(-c3ccccc3OC(C)C)ncn2)cc1N [Example 79, N^1-[6-(2-Isopropoxy-phenyl)-pyrimidin-4-yl]-4-methoxy-benzene-1,3-diamine] | – | – | 8 | good antiviral and antiproliferative activity and a good cytotoxicity profile | < 80 | – | –
12 | CCOc1ccc(Nc2cc(-c3ccccc3OC)ncn2)cc1C(N)=O [Example 111, 2-Ethoxy-5-[6-(2-methoxy-phenyl)-pyrimidin-4-ylamino]-benzamide] | – | – | 7 | good antiviral and antiproliferative activity and a good cytotoxicity profile | 16 | – | –
13 | CCOc1ccc(Nc2cc(-c3ccc(F)cc3OC)ncn2)cc1C(N)=O [Example 112, 2-Ethoxy-5-[6-(4-fluoro-2-methoxy-phenyl)-pyrimidin-4-ylamino]-benzamide] | – | – | 6 | good antiviral and antiproliferative activity and a good cytotoxicity profile | < 3 | – | –
14 | COc1ccc(Nc2cc(-c3ccc(F)cc3OC)ncn2)cc1NC(C)=O [Example 117, N-{5-[6-(4-Fluoro-2-methoxy-phenyl)-pyrimidin-4-ylamino]-2-methoxy-phenyl}-acetamide] | – | >2 | 200 | – | – | – | –
15 | COC(=O)Nc1cc(Nc2cc(-c3ccc(F)cc3OC)ncn2)ccc1OC [Example 118, {5-[6-(4-Fluoro-2-methoxy-phenyl)-pyrimidin-4-ylamino]-2-methoxy-phenyl}-carbamic Acid Methyl Ester] | – | >2 | 1500 | – | – | – | –
16 | COc1ccc(Nc2cc(-c3ccc(F)cc3OC)ncn2)cc1OC(C)=O [Example 126, Acetic Acid 5-[6-(4-fluoro-2-methoxy-phenyl)-pyrimidin-4-ylamino]-2-methoxy-phenyl Ester] | – | >2 | 100 | – | – | – | –
17 | COc1ccc(Nc2cc(-c3cc(F)ccc3OC)ncn2)cc1C(N)=O [Example 127, 5-[6-(5-Fluoro-2-methoxy-phenyl)-pyrimidin-4-ylamino]-2-methoxy-benzamide] | < 80 | – | 3 | good antiviral and antiproliferative activity and a good cytotoxicity profile | – | – | –
18 | COc1ccc(Nc2cc(-c3ccc(F)cc3OC)ncn2)cc1C(N)=O [Example 128, 5-[6-(4-Fluoro-2-methoxy-phenyl)-pyrimidin-4-ylamino]-2-methoxy-benzamide] | 30 | – | < 3 | good antiviral and antiproliferative activity and a good cytotoxicity profile | – | – | –
19 | CCOc1ccccc1-c1cc(Nc2ccc(OC)c(C(N)=O)c2)ncn1 [Example 129, 5-[6-(2-Ethoxy-phenyl)-pyrimidin-4-ylamino]-2-methoxy-benzamide] | < 80 | – | 10 | good antiviral and antiproliferative activity and a good cytotoxicity profile | – | – | –
20 | CCOc1ccc(F)cc1-c1cc(Nc2cc(F)c(OC)c(C(N)=O)c2)ncn1 [Example 142, 5-[6-(2-Ethoxy-5-fluoro-phenyl)-pyrimidin-4-ylamino]-3-fluoro-2-methoxy-benzamide] | 40 | – | 40 | good antiviral and antiproliferative activity and a good cytotoxicity profile | – | – | –
21 | COc1cc(F)c(Nc2cc(-c3ccccc3OC)ncn2)cc1C(N)=O [Example 143, 4-Fluoro-2-methoxy-5-[6-(2-methoxy-phenyl)-pyrimidin-4-ylamino]-benzamide] | > 80 | – | 16 | good antiviral and antiproliferative activity and a good cytotoxicity profile | – | – | –
22 | COc1cc(F)c(Nc2cc(-c3cc(F)ccc3OC)ncn2)cc1C(N)=O [Example 144, 4-Fluoro-5-[6-(5-fluoro-2-methoxy-phenyl)-pyrimidin-4-ylamino]-2-methoxy-benzamide] | 90 | – | < 3 | good antiviral and antiproliferative activity and a good cytotoxicity profile | – | – | –
23 | CCOc1ccccc1-c1cc(Nc2cc(C(N)=O)c(OC)cc2F)ncn1 [Example 145, 5-[6-(2-Ethoxy-phenyl)-pyrimidin-4-ylamino]-4-fluoro-2-methoxy-benzamide] | 50 | – | 30 | good antiviral and antiproliferative activity and a good cytotoxicity profile | – | – | –
24 | COc1cc(F)c(Nc2cc(-c3ccc(F)cc3OC)ncn2)cc1C(N)=O [Example 146, 4-Fluoro-5-[6-(4-fluoro-2-methoxy-phenyl)-pyrimidin-4-ylamino]-2-methoxy-benzamide] | 40 | – | < 3 | good antiviral and antiproliferative activity and a good cytotoxicity profile | – | – | –
25 | CCOc1cc(F)ccc1-c1cc(Nc2cc(C(N)=O)c(OC)cc2F)ncn1 [Example 147, 5-[6-(2-Ethoxy-4-fluoro-phenyl)-pyrimidin-4-ylamino]-4-fluoro-2-methoxy-benzamide] | 40 | – | 5 | good antiviral and antiproliferative activity and a good cytotoxicity profile | – | – | –
26 | CN1CC[C@H](c2c(O)cc(O)c3c(=O)cc(-c4ccccc4Cl)oc23)[C@H](O)C1 [Flavopiridol, reference compound] | – | – | – | – | 30 | 100 | poor anti-HIV and cytotoxicity profile
27 | CC[C@H](CO)Nc1nc(NCc2ccccc2)c2ncn(C(C)C)c2n1 [Roscovitine, reference compound] | – | 8 | – | – | – | – | poor anti-HIV and cytotoxicity profile
